Assay results reported in patent publication US20230278972A1, “SUBSTITUTED HALOALKYL SULFONANILIDE HERBICIDES” (FMC Corporation, priority 2020, published 2023).

Columns and labels:
Assay type in all cases: in vivo
[1] = system: Ryegrass, Italian (Italian ryegrass, Lolium multiflorum); assay: Test A1 postemergence, Ryegrass, Italian; conditions: for Plant response rating, Ryegrass, Italian: Postemergence
Outline: (§1)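 Both timings started from seed in a loam-sand blend. Preemergence pots got a directed soil application immediately; postemergence pots were sprayed when seedlings had one or two leaves and stood 2–10 cm. Each compound was prepared in a non-phytotoxic solvent plus surfactant.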

[2] = system: Oat, Wild (wild oat, Avena fatua); assay: Test A1 postemergence, Oat, Wild; conditions: for Plant response rating, Oat, Wild: Postemergence
Outline: (§2)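 Herbicidal response was scored on plants treated either preemergence, by directed spray onto soil of a loam–sand blend after sowing, or postemergence on potted plants at the one- to two-leaf stage, 2–10 cm high. Test chemicals were carried in a non-phytotoxic solvent mix with surfactant.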

[3] = system: kochia (Bassia scoparia); assay: Test A1 preemergence, kochia
Outline: as §2

[4] = system: Ryegrass, Italian (Italian ryegrass, Lolium multiflorum); assay: Test A1 preemergence, Ryegrass, Italian
Outline: as §2

[5] = system: horseweed (Erigeron canadensis); assay: Test A1 postemergence, horseweed; conditions: for Plant response rating, Horseweed: Postemergence
Outline: as §1

[6] = system: kochia (Bassia scoparia); assay: Test A1 postemergence, kochia; conditions: for Plant response rating, Kochia: Postemergence
Outline: as §1

[7] = 31 g ai/ha, 0 to 100 scale (0 no effect, 100 complete control), 10 days
[8] = 31 g ai/ha, 0 to 100 scale (0 no effect, 100 complete control)
[9] = 125 g ai/ha, 0 to 100 scale, 0 no effect, 100 complete control
[10] = 31 g ai/ha, postemergence, 0 to 100 scale (0 no effect, 100 complete control)
[11] = 125 g ai/ha, 0 to 100 scale (0 no effect, 100 complete control), 10 days

Row | Structure (SMILES) | Plant response rating, Ryegrass, Italian [1, 7] | Plant response rating, Ryegrass, Italian ([1]; 125 g ai/ha, 0 to 100 scale) | Plant response rating, Oat, Wild [2, 7] | Plant response rating, Oat, Wild ([2]; 125 g ai/ha, 0 to 100 scale) | Plant response rating, Kochia [3, 8] | Plant response rating, Kochia [3, 9] | Plant response rating, Ryegrass, Italian [4, 8] | Plant response rating, Ryegrass, Italian [4, 9] | Plant response rating, Horseweed [5, 7] | Plant response rating, Horseweed ([5]; 125 g ai/ha, 0 to 100 scale) | Plant response rating, Kochia [6, 7] | Plant response rating, Kochia ([6]; 125 g ai/ha, 0 to 100 scale) | Ryegrass, Italian plant response rating [1, 10] | Plant response rating, Ryegrass, Italian [1, 11] | Oat, Wild plant response rating [2, 10] | Plant response rating, Oat, Wild [2, 11] | Horseweed plant response rating [5, 10] | Plant response rating, Horseweed [5, 11] | Kochia plant response rating [6, 10] | Plant response rating, Kochia [6, 11]
1 | CCOC1CC(c2cc(NS(=O)(=O)C(F)(F)F)c(C)cc2C)=NO1 (centres unmarked) [Compound 318] | 10 | 70 | 0 | 10 | 60 | 70 | 50 | 90 | 20 | 50 | 30 | 90 | – | – | – | – | – | – | – | –
2 | Cc1cc(C)c(N(S(=O)(=O)C(F)(F)F)S(=O)(=O)C(F)(F)F)cc1C1=NOC2COCC12 (centres unmarked) [Compound 296] | 0 | 40 | 0 | 10 | 60 | 90 | 0 | 90 | 70 | 80 | 20 | 40 | – | – | – | – | – | – | – | –
3 | Cc1cc(C)c(-n2nccc(C)c2=O)cc1NS(=O)(=O)C(F)(F)F [Compound 281] | 0 | 0 | 0 | 0 | 0 | 20 | 0 | 40 | 100 | 70 | 0 | 10 | – | – | – | – | – | – | – | –
4 | Cc1c(NS(=O)(=O)C(F)(F)F)cc(C(=O)N2CCOCC2)c(C)c1Cl [Compound 290] | 0 | 50 | 0 | 10 | 20 | 30 | 30 | 60 | 70 | 90 | 20 | 20 | – | – | – | – | – | – | – | –
5 | Cc1cc(C)c(N(COC(=O)N(C)C)S(=O)(=O)C(F)(F)F)cc1C1=NOC2CCCC12 (centres unmarked) [Compound 317] | 0 | 0 | 0 | 0 | 0 | 0 | 0 | 0 | 0 | 0 | 0 | 0 | – | – | – | – | – | – | – | –
6 | Cc1cc(F)c(NS(=O)(=O)C(F)(F)F)cc1C1=NOC2(CCCC2)C1 [Compound 303] | 0 | 60 | 0 | 20 | 20 | 20 | 50 | 100 | 0 | 70 | 0 | 60 | – | – | – | – | – | – | – | –
7 | Cc1cc(Br)c(NS(=O)(=O)C(F)(F)F)cc1C1=NOC2(CCCC2)C1 [Compound 309] | 0 | 30 | 0 | 20 | 0 | 50 | 60 | 90 | 10 | 20 | 0 | 60 | – | – | – | – | – | – | – | –
8 | Cc1cc(C)c(N(COC(=O)C(C)(C)C)S(=O)(=O)C(F)(F)F)cc1C1=NOC2CCCCCC12 (single isomer, unassigned) [Compound 294] | 0 | 40 | 10 | 20 | 0 | 60 | 40 | 90 | 10 | 90 | 0 | 20 | – | – | – | – | – | – | – | –
9 | Cc1c(NS(=O)(=O)C(F)(F)F)cc(C(=O)N2CCC(F)CC2)c(C)c1C [Compound 358] | 20 | 20 | 0 | 0 | 20 | 30 | 0 | 30 | 60 | 70 | 0 | 70 | – | – | – | – | – | – | – | –
10 | CCOC(=O)N(c1cc(C(=O)N2CCOCC2)c(C)c(C)c1C)S(=O)(=O)C(F)(F)F [Compound 325] | 0 | 60 | 0 | 10 | 20 | 70 | 40 | 90 | 90 | 90 | 20 | 50 | – | – | – | – | – | – | – | –
11 | Cc1cc(C)c(N(COC(=O)C(C)(C)C)S(=O)(=O)C(F)(F)F)cc1N1CCC2(CCC(C)CC2)C1=O (centres unmarked) [Compound 401] | – | – | – | – | 0 | 0 | 0 | 30 | – | – | – | – | 0 | 0 | 0 | 30 | 0 | 0 | 10 | 30
12 | Cc1cc(C(F)(F)F)c(C2=NOC3CCCC23)cc1NS(=O)(=O)C(F)(F)F (centres unmarked) [Compound 306] | 0 | 10 | 0 | 20 | 0 | 30 | 0 | 80 | 0 | 40 | 0 | 20 | – | – | – | – | – | – | – | –
13 | Cc1c(NS(=O)(=O)C(F)(F)F)cc(C(=O)N2CCOCC2)c(C)c1C [Compound 289, 1,1,1-Trifluoro-N-[2,3,4-trimethyl-5-(4-morpholinylcarbonyl)phenyl]methanesulfonamide] | 30 | 60 | – | 20 | 20 | 80 | 20 | 70 | 80 | 90 | 20 | 60 | – | – | – | – | – | – | – | –
14 | Cc1cc(F)c(C2=NOC3CCCC23)cc1NS(=O)(=O)C(F)(F)F (centres unmarked) [Compound 310] | 20 | 30 | 0 | 10 | 0 | 40 | 40 | 50 | 10 | 30 | 0 | 20 | – | – | – | – | – | – | – | –
15 | COc1cc(C)c(C2=NOC3(CCCC3)C2)cc1NS(=O)(=O)C(F)(F)F [Compound 304] | 0 | 0 | 0 | 0 | 0 | 0 | 40 | 50 | 0 | 0 | 0 | 20 | – | – | – | – | – | – | – | –
